Here are results for 15 compounds from PubChem BioAssay (NCI).

Test systems include A549 NSCLC; EKVX NSCLC; MALME-3M melanoma; MDA-MB-231 breast; MDA-MB-435; OVCAR-5 ovarian; RXF 393 renal; SK-MEL-28 melanoma; U251 CNS; DU-145 prostate.
What all share (test): NCI anticancer screen, dose series, 48 h

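Each compound was tested at five concentrations against cells in 96-well plates for 48 hours. TGI: concentration producing complete growth inhibition.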

Turning to `CC(=O)NC1C(OCc2ccccc2)OC(CO)C(O)C1OC(C)C(=O)NC(C)C(=O)NC(CCC(=O)NCCCNc1c2ccccc2nc2cccc([N+](=O)[O-])c12)C(N)=O` (stereo not given), the TGI was found to be 11.6 µM in the assay with A549 NSCLC; 22.6 µM with EKVX NSCLC; 7.61 µM in the assay on MALME-3M melanoma; 3.26 µM with MDA-MB-231 breast; 2.65 µM in the assay on MDA-MB-435; 8.02 µM with OVCAR-5 ovarian. Besides, the TGI was 3.04 µM in the assay on RXF 393 renal, 8.04 µM with SK-MEL-28 melanoma and 12.8 µM with U251 CNS.
As for `COc1cc(Nc2cnc3cc(F)c(F)cc3n2)cc(OC)c1OC`, the TGI with A549 NSCLC, with DU-145 prostate, with EKVX NSCLC, in the assay with MALME-3M melanoma, with MDA-MB-435 and with OVCAR-5 ovarian was greater than 100 µM in each case. Also, the TGI in the assay with RXF 393 renal, in the assay with SK-MEL-28 melanoma and in the assay with U251 CNS was greater than 100 µM in each case.
As for `CC(=O)OCCn1cnc2nc(Nc3ccccc3)nc(Cl)c21`, the TGI with A549 NSCLC, in the assay with DU-145 prostate, with EKVX NSCLC, with MALME-3M melanoma, with MDA-MB-231 breast and in the assay on MDA-MB-435 was greater than 100 µM in each case. The TGI in the assay with OVCAR-5 ovarian, with SK-MEL-28 melanoma and in the assay on U251 CNS was greater than 100 µM in each case.
Turning to `Cc1cc(=O)[nH]c(NN2C(Cl)C(=O)C2c2cccc(O)c2)n1` (stereo not given), the TGI in the assay on A549 NSCLC, with EKVX NSCLC, with OVCAR-5 ovarian, in the assay with RXF 393 renal, with SK-MEL-28 melanoma and in the assay with U251 CNS was greater than 100 µM throughout.
For `O=NN(CCCl)C(=O)NC1CCSc2ccccc21` (stereo not given), the TGI was greater than 100 µM with A549 NSCLC; 94.1 µM in the assay with EKVX NSCLC; greater than 100 µM with MALME-3M melanoma; greater than 100 µM with OVCAR-5 ovarian; greater than 100 µM with RXF 393 renal; greater than 94.1 µM with SK-MEL-28 melanoma. The TGI in the assay on U251 CNS was greater than 100 µM.
With `CS(=O)(=O)Nc1ccc(N2Cc3cnc4ccc5[nH]ccc2c5c34)cc1`, the TGI in the assay on A549 NSCLC was greater than 100 µM; with DU-145 prostate, 40.9 µM; with EKVX NSCLC, greater than 100 µM; in the assay on MALME-3M melanoma it was 19.1 µM; in the assay with MDA-MB-231 breast, 37.5 µM; with MDA-MB-435 it was 31.5 µM. Further, the TGI is 84.5 µM in the assay with OVCAR-5 ovarian, 41.6 µM with SK-MEL-28 melanoma and 36.5 µM with U251 CNS.
Consider `O=[N+]([O-])c1ccccc1S(=O)(=O)c1cc(Cl)cc2c1NCCC2`, for which the TGI with A549 NSCLC was greater than 100 µM; in the assay on DU-145 prostate, greater than 100 µM; with EKVX NSCLC, greater than 100 µM; in the assay on MALME-3M melanoma it was 74.1 µM; in the assay with MDA-MB-231 breast it was greater than 100 µM; in the assay on MDA-MB-435, greater than 100 µM. Further, the TGI in the assay on OVCAR-5 ovarian, in the assay on RXF 393 renal and with SK-MEL-28 melanoma was greater than 100 µM in each case.
On to `O=C(CC(=O)Nc1cccc(C(=O)O)c1)Nc1cccc(C(=O)O)c1`, for which the TGI with A549 NSCLC, in the assay with DU-145 prostate, with EKVX NSCLC, with MDA-MB-231 breast, in the assay with MDA-MB-435 and with SK-MEL-28 melanoma was greater than 100 µM each time. In the assay on U251 CNS, this compound returned a TGI greater than 100 µM.
As to `COC(=O)Cc1cc(O)c(C/C=C(\C)CC/C=C(\C)C(O)C(=O)C=C(C)C)cc1O` (stereo not given), the TGI with A549 NSCLC was greater than 100 µM; in the assay with DU-145 prostate, greater than 100 µM; in the assay on EKVX NSCLC, 66.8 µM; in the assay with MALME-3M melanoma, 48.6 µM; in the assay with MDA-MB-231 breast, 78.3 µM; in the assay on MDA-MB-435 it was 45.4 µM. For the same compound, the TGI in the assay with OVCAR-5 ovarian was greater than 100 µM; in the assay with RXF 393 renal, 30 µM; with U251 CNS it was 35.7 µM.
For `Cc1ccc(S(=O)(=O)Oc2cc(-c3ccccc3)nc3ccccc23)cc1`, the TGI with A549 NSCLC is greater than 78.4 µM; with EKVX NSCLC it was greater than 100 µM; in the assay on MALME-3M melanoma, 17.9 µM; in the assay with OVCAR-5 ovarian, 62 µM; in the assay on RXF 393 renal, 11.9 µM; in the assay with SK-MEL-28 melanoma it was 68.7 µM. The compound further returned a TGI with U251 CNS of 9.85 µM.
`CCOC(=O)C1=C(C)N(C)C23OC4(C(=O)OC)CC2c2ccccc2C1N3C4=O` (stereo not given): the TGI in the assay with A549 NSCLC, in the assay on DU-145 prostate, with EKVX NSCLC, in the assay on MALME-3M melanoma, in the assay on MDA-MB-231 breast and in the assay on MDA-MB-435 was greater than 100 µM in each case. Further, the TGI in the assay on OVCAR-5 ovarian, in the assay on SK-MEL-28 melanoma and in the assay on U251 CNS was greater than 100 µM in each case.
`O=S(=O)(c1ccccc1)n1c2cc3cccnc3nc2c2cccnc21`: the TGI is greater than 100 µM in the assay with A549 NSCLC; greater than 100 µM with EKVX NSCLC; greater than 100 µM in the assay on MALME-3M melanoma; greater than 100 µM in the assay with MDA-MB-231 breast; 60 µM in the assay with MDA-MB-435; greater than 100 µM in the assay with OVCAR-5 ovarian. In addition, the TGI in the assay with RXF 393 renal is 90.9 µM; in the assay on SK-MEL-28 melanoma, greater than 100 µM; in the assay with U251 CNS, greater than 100 µM.
For the compound `COc1ccc(C2CC(=O)CC(c3ccc(OC)cc3)C23C(=O)NC(=O)NC3=O)cc1` (stereo not given), the TGI in the assay on DU-145 prostate is greater than 100 µM; in the assay with EKVX NSCLC, greater than 100 µM; in the assay with MALME-3M melanoma it was 73 µM; in the assay with MDA-MB-231 breast it was 85 µM; in the assay on MDA-MB-435, 61.6 µM; in the assay with OVCAR-5 ovarian, greater than 100 µM. The values for the TGI in the assay with RXF 393 renal, in the assay with SK-MEL-28 melanoma and in the assay on U251 CNS were greater than 100 µM, 43.7 µM and greater than 100 µM, respectively.
For `c1ccc(N=C2SC(=NC3CCCCC3)N(C3CCCCC3)C2=Nc2ccccc2)cc1`, the TGI with DU-145 prostate, with MALME-3M melanoma, in the assay with MDA-MB-231 breast, in the assay on MDA-MB-435, with OVCAR-5 ovarian and in the assay on RXF 393 renal was greater than 100 µM throughout. Besides, the TGI with SK-MEL-28 melanoma and with U251 CNS was greater than 100 µM throughout.
Regarding `Cc1cc2nc3c(C#N)c(-c4ccccc4)cc(Nc4ccc(Cl)cc4)n3c2cc1C`, the TGI in the assay on A549 NSCLC, in the assay on EKVX NSCLC, in the assay on MALME-3M melanoma, in the assay with MDA-MB-231 breast, in the assay on MDA-MB-435 and in the assay on OVCAR-5 ovarian was greater than 100 µM in each case. Further, the TGI with RXF 393 renal, in the assay on SK-MEL-28 melanoma and in the assay with U251 CNS was greater than 100 µM throughout.
